A short description of the data set: Human HepG2 cell viability assay in 384 well format. Also noted: dose 125 nL, time 70.5 hour; cytotoxicity at 70.5 h: concentration not given beside the values. The settings on record: HepG2 cells, read-out: Inhibition. Format: toxicity, cell-based.
Take `Cc1cc(C)n(CC(=O)NC(Cc2ccsc2)c2ccccn2)c(=O)n1` (centres undefined): the cytotoxicity at 70.5 h was found to be 13.9%.

`COc1ccccc1CC(C)CC(=O)N(C)Cc1cc(C)on1` (centres undefined): the cytotoxicity at 70.5 h was found to be 2.26%.

On to `COCCN1CCC(NCc2ccc(F)cc2F)C1` (centres undefined), for which the cytotoxicity at 70.5 h came out at 5.5%.

Consider `O=C(c1ncoc1C1CCCO1)N1CCCC2(CCCCC2)C1` (centres undefined), for which the cytotoxicity at 70.5 h was -2.37%.

With `Cc1ccc(OCCC(=O)N(C)CC(=O)Nc2cc(C)on2)c(C)c1`, the cytotoxicity at 70.5 h is -4.37%.

For `CC(=O)N1CCC2(CCCN(S(=O)(=O)c3ccc(F)cc3)C2)C1` (centres undefined), the cytotoxicity at 70.5 h was found to be 5.56%.

As for `O=C(c1cnn2cccnc12)N1CCCC(n2ccnc2)C1` (centres undefined), the cytotoxicity at 70.5 h was -3.58%.

Regarding `Cn1cccc1C(O)CNC(=O)c1ccc(F)c(F)c1` (centres undefined), the cytotoxicity at 70.5 h is -13.5%.

On to `CCn1ccnc1CN(C)Cc1nc(CCC(C)C)no1`, for which the cytotoxicity at 70.5 h was determined as 1.4%.

Take `O=C(CCn1cncn1)N1C[C@H]2CC[C@@H]1CN(Cc1ccncc1)C2`: the cytotoxicity at 70.5 h was 16.7%.

Turning to `COc1ccccc1CNc1c(O)c(=O)c1=O`, the cytotoxicity at 70.5 h was -7.01%.

With `Cc1csc(C2(NC(=O)CCc3ccncc3)CCCC2)n1`, the cytotoxicity at 70.5 h was -7.21%.

Consider `O=C1CCCN1CC1CCCCN1C(=O)Nc1cccc(F)c1` (centres undefined), for which the cytotoxicity at 70.5 h was -14.6%.

For the compound `Cc1cc(Br)ccc1NCc1ccc(C(=O)N(C)C)[nH]1`, the cytotoxicity at 70.5 h stood at 18.2%.

For `CNC(=O)[C@@H](c1ccccc1F)N1CCC[C@H]1C(=O)NC1CCCC1`, the cytotoxicity at 70.5 h was -5.2%.

On to `CC(NC(=O)c1ccc(C(N)=O)cc1)c1cccc(N2CCOC2=O)c1` (centres undefined), for which the cytotoxicity at 70.5 h came to 0.0239%.

`Cc1ccc(Cn2cc(C)c(N)n2)cc1`: the cytotoxicity at 70.5 h turned out to be 22.1%.

Take `CCc1nccn1-c1cncc(C2CCCN2Cc2ccccc2)n1` (centres undefined): the cytotoxicity at 70.5 h is -5.36%.

As for `CS(=O)(=O)Cc1nc(CN2CCCc3sccc3C2)cs1`, the cytotoxicity at 70.5 h was -5.84%.

`Cc1nn(CCO)cc1CN1CCC(N2CCC(O)CC2)CC1`: the cytotoxicity at 70.5 h was determined as 1.99%.

Take `O=C(Cn1cc(C(=O)O)ccc1=O)Nc1cc(F)ccc1F`: the cytotoxicity at 70.5 h is -9.56%.

On to `COCCN(C)C(=O)Nc1ccn(-c2cccc(C(F)(F)F)c2)n1`, for which the cytotoxicity at 70.5 h was -2.62%.

With `CCn1cnnc1CNC(=O)N1CCN(C(C)C)CC1`, the cytotoxicity at 70.5 h is 26%.

On to `COc1ccc(CN2C[C@@H]3COC[C@]3(CN(C)C)C2)cc1`, for which the cytotoxicity at 70.5 h was -12.6%.

For `COCCN1CCN(Cc2coc(-c3ccccc3Cl)n2)CC1`, the cytotoxicity at 70.5 h is -10.2%.

For the compound `Cn1cc(C(=O)NCc2cn3c(n2)CN(C2CCOCC2)CC3)cn1`, the cytotoxicity at 70.5 h was -109%.

For the compound `CN(C(=O)c1ccccc1NCC(=O)O)C(C1CC1)C1CC1`, the cytotoxicity at 70.5 h was -10.9%.

With `CSCc1cccc(S(=O)(=O)N2CCCCC2)c1`, the cytotoxicity at 70.5 h was -6.14%.

Turning to `Cc1csc(CNC(=O)NCC(O)c2ccc(F)c(F)c2)n1` (centres undefined), the cytotoxicity at 70.5 h turned out to be 10.8%.

For the compound `CN1CCCC(N(C)C(=O)c2ccc(NC(=O)c3cc[nH]n3)cc2)C1` (centres undefined), the cytotoxicity at 70.5 h was -0.159%.

On to `O=C(Nc1ccccn1)NC(CCCO)c1ccccc1` (centres undefined), for which the cytotoxicity at 70.5 h is -5.11%.

On to `CSc1ccc(CCNC(=O)Cc2c(C)n[nH]c2C)cc1`, for which the cytotoxicity at 70.5 h is -7.74%.

As for `CNc1nccnc1C1CCN(C(C)C)CC1`, the cytotoxicity at 70.5 h came out at 12.4%.

On to `CC(C)N1C(=O)CC(NC(=O)c2cc(Cl)sc2Cl)C1=O` (centres undefined), for which the cytotoxicity at 70.5 h was -8.84%.

With `Cc1cc(CN2CC[C@H]3C[C@@H](c4nc(C5CC5)cs4)O[C@@H]3C2)no1`, the cytotoxicity at 70.5 h was -2.95%.

In the case of `CCn1ncc2c1CCCC2NCc1cc(Cl)c(OC)c(OC)c1` (centres undefined), the cytotoxicity at 70.5 h amounted to 27.8%.

Regarding `CC(C)N1CCc2[nH]nc(C(=O)N3CCOCC3)c2C1`, the cytotoxicity at 70.5 h was -12.9%.

Take `CC(C)CNC(=O)c1[nH]nc(C2CC2)c1Br`: the cytotoxicity at 70.5 h was -4.78%.

`Cc1cc(CN2CCN(C(=O)c3ccc(=O)n(C)c3)CC2)no1`: the cytotoxicity at 70.5 h is -5.04%.

Take `O=C([C@@H]1C[C@@H]2CCN(C3CCOCC3)C[C@@H]2O1)N1CCCC1`: the cytotoxicity at 70.5 h was -5.63%.

As to `CCn1cc(S(=O)(=O)N2CCCC3(CC=CNC3=O)C2)cn1` (centres undefined), the cytotoxicity at 70.5 h is -0.325%.

For `Cc1cc(CNC(=O)Nc2cc(F)cc(N3CCCC3)c2)no1`, the cytotoxicity at 70.5 h is -13.7%.

Turning to `COc1ccc(-c2nc(CN3CCOCS3(=O)=O)c(C)o2)cc1`, the cytotoxicity at 70.5 h was -0.0234%.

For the compound `CCn1nc(C)c(C(C)NC(=O)c2cccc(NCC(=O)O)c2)c1C` (centres undefined), the cytotoxicity at 70.5 h was -9.45%.

On to `Cc1oc(C)c(C(=O)N2CCCN(c3nccs3)CC2)c1C`, for which the cytotoxicity at 70.5 h was -5.97%.

Turning to `COCc1n[nH]c2c1CN(Cc1cccs1)C2`, the cytotoxicity at 70.5 h is -6.13%.

Regarding `Cc1nc[nH]c1C(=O)N1CCC2(CN(C)C(=O)O2)C1` (centres undefined), the cytotoxicity at 70.5 h was -7.68%.

Turning to `O=C(c1c2c(N3CCOCC3)ncnc2n2ccccc12)N1CCCC1`, the cytotoxicity at 70.5 h is -3.03%.

As to `O=C(NC1(c2nnn(CC3CC3)n2)CCCC1)c1ccccc1`, the cytotoxicity at 70.5 h is -7.63%.

Regarding `CCC(=O)N1CCC(c2cncc(Oc3cccnc3)n2)CC1`, the cytotoxicity at 70.5 h is -5.07%.

`CC(C)[C@@H]1CN(c2ncc(F)cn2)C[C@H]1NC(=O)N(C)C`: the cytotoxicity at 70.5 h is -3.08%.

Take `CC(C)CC(=O)NC1CC2(CCN(CCF)CC2)Oc2ccccc21` (centres undefined): the cytotoxicity at 70.5 h is -6.46%.

Turning to `CNC(=O)CCN1CCN(C(C)c2ccc(Cl)cc2)CC1` (centres undefined), the cytotoxicity at 70.5 h is -6.21%.

As for `Cn1nnc2c1CCN(C(=O)C1CCC1)C2COCCN1CCCC1` (centres undefined), the cytotoxicity at 70.5 h was -2.83%.

Turning to `O=C(C1=CCCCC1)N1CCO[C@H]2[C@H](Oc3ccccn3)CC[C@@H]21`, the cytotoxicity at 70.5 h was -9.07%.

In the case of `COCC(=O)N(C)Cc1nc(N2CCCC2)ncc1-c1ccncc1`, the cytotoxicity at 70.5 h came to 13.6%.

For `CN(C)C1(CNC(=O)C/C=C/c2ccc(F)cc2)CCOCC1`, the cytotoxicity at 70.5 h was found to be 22.9%.

Consider `Cc1ccc2cccc(C(=O)NCC3CCN(C(C)C)C3)c2n1` (centres undefined), for which the cytotoxicity at 70.5 h worked out at 12%.

Regarding `CC(Cn1ccnc1)NC(=O)N(C)Cc1ccc2c(c1)OCCO2` (centres undefined), the cytotoxicity at 70.5 h was determined as 26.7%.

As to `COCC(=O)N1C[C@@H](C)[C@](O)(C(C)C)C1`, the cytotoxicity at 70.5 h is -3.63%.

With `O=C(CCc1ccccn1)N1CCCC1`, the cytotoxicity at 70.5 h is -3.29%.

For `Cc1ccccc1C(C)NC(=O)CSCC#N` (centres undefined), the cytotoxicity at 70.5 h is 12.8%.

For `Cc1cc(C)cc(CCC(=O)N2CCN(c3cc(C)nc(N)n3)CC2)c1`, the cytotoxicity at 70.5 h was 6.95%.

For the compound `CC(C#N)CN(C)C(=O)c1cn(-c2ccc(Br)cc2)cn1` (centres undefined), the cytotoxicity at 70.5 h was -1.57%.

On to `CCOCC(O)CN1CCN(C(=O)Cc2ccccc2Cl)CC1` (centres undefined), for which the cytotoxicity at 70.5 h was -0.667%.

Consider `CC(NCC(=O)N(C)C1CC1)c1ccc(S(C)(=O)=O)c(F)c1` (centres undefined), for which the cytotoxicity at 70.5 h was -9.06%.

Take `Cc1cc(N2CCOCC2)ccc1NC(C)c1nc(C(C)(C)C)no1` (centres undefined): the cytotoxicity at 70.5 h was -6.63%.

For `Cn1cc(C(=O)N2CCCC(c3cnccn3)C2)cn1` (centres undefined), the cytotoxicity at 70.5 h was -4.7%.

As for `O=C(NCCNc1ncccn1)N1CCc2ccccc2C1`, the cytotoxicity at 70.5 h came to 8.69%.

Regarding `Cn1cc(S(=O)(=O)Nc2c(F)cccc2N2CCCC2)cn1`, the cytotoxicity at 70.5 h is -4.97%.

Take `CC1(C)CN(C(=O)CCc2nc(-c3ccncc3)no2)CCO1`: the cytotoxicity at 70.5 h was -12%.

Consider `CCn1cnnc1C1CCN(C(=O)c2cc3c(s2)CCOC3)CC1`, for which the cytotoxicity at 70.5 h was -9.84%.

Consider `CC(C)Cc1cc(C(=O)N2CC(OCc3ccccc3F)C2)n(C)n1`, for which the cytotoxicity at 70.5 h is -2.8%.

Regarding `CN1CCCC(C(=O)N2CCC(Oc3ccccn3)CC2)C1` (centres undefined), the cytotoxicity at 70.5 h is -7.47%.

As to `Cc1cc(-c2ccc(=O)n(CCNC(=O)C3CCC3)n2)c(C)o1`, the cytotoxicity at 70.5 h was found to be 15.6%.

For the compound `CS(=O)(=O)N[C@@H]1CN(Cc2ccc3ccccc3c2)C[C@H]1O`, the cytotoxicity at 70.5 h was -2.76%.

On to `O=C(CCCOc1ccc(F)cc1F)N1CCCC1Cn1cccn1` (centres undefined), for which the cytotoxicity at 70.5 h is 1.98%.

As for `C[C@H]1CN(C(=O)c2ccc[nH]2)C[C@@]12CCN(c1ccsc1)C2=O`, the cytotoxicity at 70.5 h is -5.02%.

With `CC(C)(C)n1ncc2c1CCCC2NCc1ccc2ncccc2c1` (centres undefined), the cytotoxicity at 70.5 h was -4.24%.

Regarding `CN1CCCCC1(C)C(=O)N1CCC(c2ccccn2)CC1` (centres undefined), the cytotoxicity at 70.5 h is 14.5%.

For the compound `CSCCc1c(-c2ccccc2)ncn1CCNc1cccnc1`, the cytotoxicity at 70.5 h is -8.03%.

Regarding `Cc1csc2nc3n(c(=O)c12)CCN(Cc1c[nH]cn1)CC3`, the cytotoxicity at 70.5 h turned out to be 0.274%.

For the compound `NC(=O)c1cccc(CC2CCN(C(=O)CCc3cccc(F)c3)C2)c1` (centres undefined), the cytotoxicity at 70.5 h is -8.51%.

As for `Cc1nc(C2CCCN(C(=O)COCc3ccccc3Cl)C2)no1` (centres undefined), the cytotoxicity at 70.5 h is -7.76%.

`Cc1n[nH]c(C)c1-c1nccnc1CC1CCN(S(C)(=O)=O)C1` (centres undefined): the cytotoxicity at 70.5 h was -7.83%.

As to `COCc1ccc(C(=O)N2CCCN(C(=O)OCC(C)C)CC2)cc1`, the cytotoxicity at 70.5 h stood at 19%.

As to `O=S1(=O)c2ccccc2OCC2(CCN(CCO)CC2)CN1CC1CC1`, the cytotoxicity at 70.5 h was -0.378%.

`CCNC(=O)NC(=O)CN1CCOC(c2ccccc2Cl)C1` (centres undefined): the cytotoxicity at 70.5 h is -9.68%.

With `O=C(CC1CC1)N[C@@H]1CN(Cc2nccs2)C[C@@H]2CCCO[C@@H]21`, the cytotoxicity at 70.5 h is -2.11%.

Consider `CN(Cc1ccccn1)C1CC2(CCN(Cc3ccccn3)CC2)C1`, for which the cytotoxicity at 70.5 h was -10.9%.

In the case of `Cc1cc(CN(C)C(=O)c2ccc(Cl)cc2N2CCCC2=O)no1`, the cytotoxicity at 70.5 h was -12.5%.

As to `COc1ccc2[nH]c(=O)c(CN(C)C(C)c3ccccn3)cc2c1` (centres undefined), the cytotoxicity at 70.5 h is -7.2%.

With `CCN(Cc1ccoc1)C(C(N)=O)c1ccc(Br)cc1` (centres undefined), the cytotoxicity at 70.5 h was found to be 16.2%.

Regarding `CCN(c1ccc(C(=O)N2CCCCC2)cc1)S(=O)(=O)CC`, the cytotoxicity at 70.5 h was -9.5%.

On to `Cc1nc[nH]c1CN1C[C@@H]2CC[C@H](C1)N(C(=O)CCNS(C)(=O)=O)C2`, for which the cytotoxicity at 70.5 h is -1.67%.

On to `Cc1cc(C)n(CC(=O)N2CCC(c3ccn4nccc4n3)CC2)n1`, for which the cytotoxicity at 70.5 h is 26.6%.

With `COc1ccc2[nH]c(=O)c(CN(C)CCN3CCCC3)cc2c1`, the cytotoxicity at 70.5 h was found to be 57.1%.

`COC(CNC(=O)C1CCCC1)c1ccc(C)s1` (centres undefined): the cytotoxicity at 70.5 h was -1.8%.

As to `O=C(CCCn1nnc(-c2ccc(F)cc2)n1)N1CCOCC(CO)C1` (centres undefined), the cytotoxicity at 70.5 h came out at 23.7%.
